Consider two compounds from patent publication US12194046B2 (priority 2021, dated 2025).

The test system of one data set is human hepatocytes. The procedure: Cryopreserved human hepatocytes were thawed and suspended into 50 ml of InVitro GRO HT-medium. The cells were centrifuged (50 g, 5 min) and resuspended into InVitro GRO KHB-medium (protein free). The cell density and viability were determined by trypan blue exclusion method.
Instrumentation: Waters Acquity UPLC+Waters TQ-S triple quadrupole MS; Column: Phenomenex Kinetex Biphenyl (2.1×100 mm, 1.8 μm) column with guard filter; Software: MassLynx 4.2.
The samples were analysed at 0, 30, 60, 90, and 120 minutes (with and without hepatocytes) by LC/MS/MS to monitor substrate depletion and formation of metabolites theophylline, theobromine and paraxanthine.

The next data set can be described thus: clinical. To be noted: both, human, in vivo, po.
The nature of data set [1]: Pharmacokinetic study: plasma and brain concentrations after a single oral (gavage) dose in rats. To be noted: oral gavage 2 mg/kg. Format: in vivo, Sprague-Dawley rats. The source says: Serial blood samples were collected from three animals per group per timepoint prior to dosing and at 0.25, 0.5, 1, 2, 3 4, 6, 8, 10, 12, and 14-hours post dose. No more than three blood samples were collected from individual animals with the last sample being a terminal blood draw. Terminal brain samples were collected from three animals per group at 1, 4, 8, and 14-hours post dose. Blood samples were collected into tubes containing sodium heparin, and then processed for plasma and stored frozen until bioanalysis. Brain samples were collected following the terminal blood collection, rinsed with saline, and stored frozen until bioanalysis.
Non-compartmental pharmacokinetic parameter estimates were calculated from the mean plasma concentration-time data.
Animals were fasted overnight prior to dose administration. Water was provided ad libitum. Food was returned after the collection of the 4-hour samples.
Prior to dosing, the body weight of each animal was recorded. Doses (rounded to the nearest 0.001 mL) were calculated based on the pretreatment body weight (kg) and a dose volume of 10 mL/kg. […] Dosing syringes were weighed immediately prior to and immediately after dosing each animal, and the quantity of formulation administered to each animal was determined from the difference in syringe weights.
Immediately after the 1, 4, 8 and 14-hour blood collections, three animals/group were euthanized and the brain was dissected out of each rat. […] Brain weights were calculated for each sample. […]
The concentration-time data were analyzed to fit an extra-vascular (oral gavage) dosing plasma analysis model (200) using the software WinNonlin Phoenix version 6.3 (Pharsight).
Areas-under-the-plasma concentration-time curves (AUC) were estimated using the linear trapezoidal rule. […] Apparent T1/2 was calculated using the slope of the log-linear terminal phase of the concentration-time curve, defined by a minimum of three plasma concentration-time points. Half-lives are reported if the correlation for the regression line, as measured by r squared, is ≥0.9, when rounded.

For `Cn1c(=O)c2c(ncn2C)n(C)c1=O` [caffeine, reference compound], in the data set with human hepatocytes, the “formation of metabolite theobromine” value is “not detected” and the “substrate depletion (disappearance)” value was “No clear disappearance”. The same compound showed a half-life in the data set “clinical” (50 mg) of 5.41 h. Also, in “clinical” (52.3 mg), the AUC(0-t) came to 47.2 µM·h, the peak level (Cmax) was 5.32 µM and the MRT came out at 7.3 h. In addition, the half-life in the data set “clinical” (250 mg) is 4.25 h. In “clinical” (261.7 mg), this compound gave an AUC(0-t) of 206 µM·h, a Cmax of 25.1 µM and an MRT of 4.3 h. Besides, in data set [1] (rat plasma, caffeine values multiplied by 0.956), the “Cmax, corr (molecular weight corrected)” value is on record as 2486 ng/mL.

Regarding `[2H]C([2H])([2H])n1c(=O)c2c(ncn2C([2H])([2H])[2H])n(C([2H])([2H])[2H])c1=O` [d9-caffeine, 1,3,7-tri-trideuteromethylxanthine], in the data set with human hepatocytes, the “formation of metabolite theobromine” value is “not detected” and the “substrate depletion (disappearance)” value is reported as “No clear disappearance”. Also, the half-life in “clinical” (50 mg) is 32.2 h. In “clinical” (52.3 mg), this compound showed an AUC(0-t) of 192 µM·h, a Cmax of 6.62 µM and an MRT of 19.7 h. In addition, in the data set “clinical” (250 mg), the half-life is 25.6 h. In the data set “clinical” (261.7 mg), this compound returned an AUC(0-t) of 972 µM·h, a Cmax of 36.5 µM and an MRT of 18.9 h. For the same compound, the “total brain exposure (AUClast,corr) higher than caffeine” value in data set [1] (rat brain, molecular weight corrected) is on record as “approximately 52%”. Besides, the “total systemic exposure (AUCinf) higher than caffeine” value in data set [1] (rat plasma, molecular weight corrected) is recorded as “approximately 77%”.
